From patent publication US20150119601A1, “MONOFUNCTIONAL MCR + 3-HP DEHYDROGENASE” (OPX Biotechnologies, Inc., priority 2013, published 2015)
Read-outs that look alike come from different tables or passages of the source.

Experiments:
[1] = test system: E. coli strains; test: Growth inhibition of E. coli strains by 3-HP; format: cell-based; settings: E. coli strains grown in the presence of 3-HP
[2] = molecular target: E. coli ACCase (Escherichia coli, UniProt P0A9Q5+P0ABD5+P0ABD8+P24182); settings: for inhibition of E. coli ACCase by the salts: FIG. 4; for decrease of ACCase enzyme activity: relative to control (FIG. 4)
Method: Levels of greater than 0.66M (60 g/L) are expected to be present for commercially viable commercial production of 3-HP.
Each gene was amplified by PCRs with Pfu Ultra II HS using the manufacturer's instructions, and the PCR products were purified using the Zymo PCR Cleanup kit. Concentrations of products were measured using the Nanodrop spectophotometer. The Gibson Assembly kit (NEB) was used to construct plasmids expressing the ACCase subunit genes as directed by the manufacturer. The effect of NH4-3-HP and NH4Cl on H. elongata ACCase was tested and compared to the E. coli ACCase.

[3] = test system: H. elongata ACCase; test: Salt effect on H. elongata ACCase compared to E. coli ACCase; format: biochemical, Halomonas elongata; settings: FIG. 4
Method: Concentrations of products were measured using the Nanodrop spectophotometer.

[4] = salts of 3-HP levels near 0.66M

Chain of E. coli ACCase (P0ABD5 whole entry): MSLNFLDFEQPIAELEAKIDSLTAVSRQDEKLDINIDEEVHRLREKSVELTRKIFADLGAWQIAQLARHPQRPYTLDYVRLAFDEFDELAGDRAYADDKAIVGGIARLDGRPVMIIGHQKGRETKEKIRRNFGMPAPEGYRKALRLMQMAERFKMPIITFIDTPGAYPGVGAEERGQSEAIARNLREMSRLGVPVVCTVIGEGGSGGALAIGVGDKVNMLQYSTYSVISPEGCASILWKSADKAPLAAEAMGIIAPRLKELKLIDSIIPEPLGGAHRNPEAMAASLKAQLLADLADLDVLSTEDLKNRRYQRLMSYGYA
Chain of E. coli ACCase (P0A9Q5 whole entry): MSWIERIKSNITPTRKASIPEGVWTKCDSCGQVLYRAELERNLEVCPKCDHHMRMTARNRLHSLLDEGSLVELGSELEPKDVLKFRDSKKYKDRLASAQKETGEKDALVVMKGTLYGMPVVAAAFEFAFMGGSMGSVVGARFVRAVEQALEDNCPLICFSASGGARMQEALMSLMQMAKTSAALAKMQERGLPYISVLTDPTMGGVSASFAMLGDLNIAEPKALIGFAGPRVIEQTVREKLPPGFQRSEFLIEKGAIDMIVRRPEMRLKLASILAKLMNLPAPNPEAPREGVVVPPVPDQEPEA

Row | SMILES | 3-HP level at which growth inhibition is demonstrated [1] [g/L] | inhibition of E. coli ACCase by the salts [2] | decrease of ACCase enzyme activity [2, 4] | effect of the salts on ACCase from the halophile [3] | decrease of ACCase enzyme activity ([2]; salt levels near 0.44M)
1 | O=C(O)CCO [3-HP, 3-hydroxypropionic acid] | ≥ 20 | – | – | – | –
2 | N.O=C(O)CCO [NH4-3-HP] | – | significantly inhibited | approximately 80% | less affected | –
3 | Cl.N [NH4Cl] | – | significantly inhibited | – | less affected | approximately 80%
4 | O=C([O-])CCO.[Na+] [Na-3-HP] | – | – | approximately 80% | – | –
5 | [Cl-].[Na+] [NaCl] | – | – | – | – | approximately 80%
